From the supplement of paper PMC10307832

Columns and labels:
Test in all cases: relative viability (nuclei count vs DMSO), 5 days (fraction); higher = more cells survive
[1] = compound: C1=CC=C(C(=C1)C2=CC=C(C=C2)C3=CSC4=C3C(=C(C(=O)N4)C#N)O)O + CC(=O)Nc1cccc(-n2c(=O)n(C3CC3)c(=O)c3c(Nc4ccc(I)cc4F)n(C)c(=O)c(C)c32)c1 [Trametinib] (partner 0.02 µM)
Outline: (§1)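 The day after seeding in 1536-well plates, lung cancer cell lines were treated by pin tool with a single drug, or with a fixed anchor-drug dose together with five library-drug doses (not always all listed) in √10 steps. After 5 days, a combined fix-and-stain solution (final 0.05% Triton X-100, 1% formaldehyde, 1 ug/ml Hoechst) was added. Nuclei counted on 4× images gave relative viability as treated counts over vehicle counts, reported as the median of duplicate plates.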

[2] = compound: C1=CC=C(C(=C1)C2=CC=C(C=C2)C3=CSC4=C3C(=C(C(=O)N4)C#N)O)O + COc1cc2c(Oc3ccc(NC(=O)C4(C(=O)Nc5ccc(F)cc5)CC4)cc3F)ccnc2cc1OCCCN1CCOCC1 [Foretinib] (partner 0.25 µM)
Outline: as §1

[3] = compound: C1=CC=C(C(=C1)C2=CC=C(C=C2)C3=CSC4=C3C(=C(C(=O)N4)C#N)O)O + COc1cccc2cc(-c3nc([C@H]4CC[C@H](C(=O)O)CC4)n4ncnc(N)c34)[nH]c12 [OSI-027] (partner 0.5 µM)
Outline: as §1

[4] = compound: O=C(CCCCCCNC(=O)c1cnc(N(c2ccccc2)c2ccccc2)nc1)NO [Ricolinostat] + C[C@]1(O)C[C@@H](c2nc(-c3ccc4ccc(-c5ccccc5)nc4c3)c3c(N)nccn32)C1 [Linsitinib] (partner 1 µM)
Outline: as §1

Cell Line	relative viability ([1]; first compound 0.08 µM)	relative viability ([1]; first compound 0.253 µM)	relative viability ([1]; first compound 0.8 µM)	relative viability ([1]; first compound 2.53 µM)	relative viability ([1]; first compound 8 µM)	relative viability ([2]; first compound 0.08 µM)	relative viability ([2]; first compound 0.253 µM)	relative viability ([2]; first compound 0.8 µM)	relative viability ([2]; first compound 2.53 µM)	relative viability ([2]; first compound 8 µM)	relative viability ([3]; first compound 0.08 µM)	relative viability ([3]; first compound 0.253 µM)	relative viability ([3]; first compound 0.8 µM)	relative viability ([3]; first compound 2.53 µM)	relative viability ([3]; first compound 8 µM)	relative viability ([4]; first compound 0.08 µM)	relative viability ([4]; first compound 0.253 µM)	relative viability ([4]; first compound 0.8 µM)	relative viability ([4]; first compound 2.53 µM)
NCI-H3122	0.289	0.233	0.223	0.253	0.295	0.954	1.05	1.01	1.06	0.978	0.836	1.07	1.09	1.33	0.774	1.01	1.02	1.13	1.05
HCC-15	0.39	0.369	0.409	0.427	0.358	0.996	1.1	1.13	1.12	0.898	0.667	0.735	0.699	0.704	0.571	0.847	0.866	0.938	0.834
NCI-H2009	0.226	0.268	0.333	0.249	0.295	1.18	1.24	1.3	1.28	1.19	0.624	0.63	0.555	0.612	0.509	1.08	1.15	1.09	0.952
NCI-H23	0.333	0.321	0.383	0.379	0.261	0.906	1.04	1.19	1.05	0.896	0.69	0.523	0.596	0.575	0.537	0.476	0.625	0.59	0.514
NCI-H1623						0.915	0.971	0.864	0.889	0.798	0.469	0.453	0.382	0.427	0.419				
NCI-H1734	0.57	0.666	0.728	0.669	0.559	0.783	0.803	0.899	0.971	0.738	0.642	0.608	0.618	0.595	0.432	0.737	0.843	0.961	1
NCI-H2170	0.87	0.979	0.865	0.986	0.778	0.951	1.03	0.988	1.03	0.932	0.76	0.74	0.676	0.677	0.754				
NCI-H2342	0.754	0.88	0.794	0.681	0.68	1.01	1.1	1.1	1.03	0.856	0.555	0.702	0.561	0.664	0.555				
HCC-366		0.385	0.363	0.439	0.314	1.03	0.974	0.949	0.992	0.959	1.32	1.18	0.875	0.945	0.719	0.454	0.67	0.478	0.454
HARA	0.689	0.705	0.959	0.659	0.554	0.721	1.08	0.938	0.882	0.706	0.386	0.661	0.524	0.428	0.297	0.813	0.902	0.886	0.81
NCI-H2087	0.283	0.285	0.206	0.208	0.202	1.35	1.27	1.06	1.11	0.792	0.551	0.772	0.568	0.57	0.358	0.896	0.986	1.01	0.847
NCI-H1650	0.639	0.495	0.524	0.597	0.42	0.795	1.52	1.31	1.22	0.935	0.477	0.784	0.738	0.508	0.43				
NCI-H1563						0.972	0.862	0.947	0.861	0.927	0.672	0.746	0.7	0.774	0.745	1.19	1.12	1.08	0.982
NCI-H1666	0.819	1.13	0.935	0.861	0.803	1	0.976	0.95	1.01	0.916	0.804	1.09	0.901	0.777	0.745	0.799	0.806	0.745	0.468
LCLC-103H	0.729	0.618	0.682	0.632	0.62	0.78	0.735	0.93	0.698	0.587	0.372	0.39	0.519	0.469	0.434	0.925	1.06	1.09	1.11
HOP-62	0.38	0.431	0.41	0.378	0.337	1.15	1.01	1.17	1.28	1	0.795	0.728	0.591	0.958	0.756	1.03	0.991	0.943	0.644
BEN	1.13	1.08	1.01	0.967	1.02	0.503	0.611	0.668	0.646	0.634	0.305	0.303	0.497	0.313	0.286	0.795	0.751	0.953	0.592
NCI-H1299						1.1	1.07	1.09	1.11	1.17						0.984	0.898	0.959	0.74
UMC-11		0.649	0.695	0.658	0.551	0.809	0.855	1.15	1.19	0.858	0.429	0.641	0.503	0.446	0.437	1.02	0.932	1	0.723
NCI-H1755	0.758	0.775	0.8	0.862	0.797	0.966	0.924	0.89	0.929	0.95	0.762	0.848	0.616	0.686	0.751	0.901		0.994	0.966

Cell Line	relative viability ([1]; first compound 0.08 µM)	relative viability ([1]; first compound 0.253 µM)	relative viability ([1]; first compound 0.8 µM)	relative viability ([1]; first compound 2.53 µM)	relative viability ([1]; first compound 8 µM)	relative viability ([2]; first compound 0.08 µM)	relative viability ([2]; first compound 0.253 µM)	relative viability ([2]; first compound 0.8 µM)	relative viability ([2]; first compound 2.53 µM)	relative viability ([2]; first compound 8 µM)	relative viability ([3]; first compound 0.08 µM)	relative viability ([3]; first compound 0.253 µM)	relative viability ([3]; first compound 0.8 µM)	relative viability ([3]; first compound 2.53 µM)	relative viability ([3]; first compound 8 µM)	relative viability ([4]; first compound 0.08 µM)	relative viability ([4]; first compound 0.253 µM)	relative viability ([4]; first compound 0.8 µM)	relative viability ([4]; first compound 2.53 µM)
SK-LU-1	0.412	0.408	0.505	0.476	0.426	0.886	0.733	0.871	0.947	0.734	0.342	0.369	0.276	0.397	0.3	1.09	0.96	1.18	0.76
NCI-H1793	0.354	0.738	0.428	0.446	0.34	0.623	0.673	0.691	0.595	0.555	0.281	0.378	0.267	0.263	0.252		0.802	0.743	0.81
NCI-H647		0.422	0.57	0.493	0.25	1.21	1.22	1.32	1.41	0.963	0.694	0.578	0.568	0.628	0.362	1.13	1.23	1.16	0.698
NCI-H1975	0.348	0.412	0.337	0.311	0.345	0.889	0.822	0.967	1	0.84	0.535	0.823	0.689	0.709	0.676	0.998	0.878		0.835
NCI-H1648		0.487	0.61	0.546	0.353						0.312		0.224	0.27	0.311				
NCI-H2126	0.611	0.51	0.571	0.54	0.476	1.41	1.22	1.43	1.15	1.01	0.639	0.718	0.654	0.737	0.708	0.539	0.724	0.7	0.627
EBC-1						0.103	0.101	0.123	0.0897	0.115						0.737	0.713	0.911	0.328
NCI-H1651	0.895	0.875	0.809	0.858	0.677	0.848	0.774	0.924	0.76	0.714	0.66	0.76	0.715	0.576	0.448	0.72	0.871	0.93	0.816
HCC-827	0.538	0.368	0.538	0.535	0.536	1.11	1.04	1.04	1.06	0.969	0.691	0.862	0.699	0.881	0.739	0.896	0.91	0.966	1.02
NCI-H2085	0.55	0.772	0.615	0.484	0.598	1.05	0.9	0.958	0.852	0.797	0.866	1.02	0.661	0.627	0.512		0.868	0.922	0.865
EPLC-272H	0.269		0.245	0.252	0.289	0.613	0.813	0.772	0.708	0.524	0.253	0.286	0.263	0.27	0.289		0.894	1.21	0.772
ABC-1						1	1.13	1.05	0.951	1.09	0.37	0.477	0.478	0.424	0.257	0.616	0.772	0.944	0.669
ChaGo-K-1	0.94	0.905	0.935	1.01	0.857	0.882	0.9	1.08	1.02	0.723	0.475	0.569	0.485	0.571	0.528				
NCI-H522	1	0.784	0.827	0.687	0.718						0.606	0.73	0.86	0.771	0.657				
Calu-6						0.985	0.967	0.909	0.94	0.773						0.817	0.89	0.891	0.766
NCI-H1703						0.284	0.355	0.35	0.363	0.409							0.669	0.774	0.956
HCC-44	1.13	1.15	1.13	0.937	0.927							0.588	0.518	0.558	0.523	0.575	0.682	0.589	0.545
A549						0.688	1.07	0.971	0.756	0.649							0.533	0.538	0.562
SW 900		1.06	0.947	0.762	0.646	0.914	0.519	0.923	0.634	0.62	0.461	0.628	0.426	0.462	0.356				
IA-LM						0.893	1.35	1.01	1.41	1.14						0.335	0.529	0.594	0.259
